Experimental data as given in publication PMC9975351 (Frontiers in Pharmacology, 2023).

Assays:
CYP3A4 = molecular target: T1, CYP3A4 (Homo sapiens, UniProt P08684); assay: Reaction phenotyping with recombinant CYP3A4; type: in vitro ADME; conditions: 1 µM, 50 pmol/mL recombinant CYP3A4, NADPH, 60 min, vs control
T1 construct: purchased Cypex (Dundee, UK); host or cells: bactosomes (bacterial membranes)
Description: (§1) Reactions were conducted in triplicate using 0.1 M PPB (pH 7.4) in eight-well tube strips in an 8 × 12 rack. […] The mixture was pre-incubated at 37°C with shaking at approximately 100 rpm for 5 min. Reactions were initiated by the addition of the NADPH-regenerating system and quenched with 200 µL ice-cold acetonitrile containing 50 nM CBZ. The samples were centrifuged at 1,000 × g and 4°C for 20 min, and the supernatants were subjected to LC-QTOF HRMS. […] The reaction was incubated, initiated, terminated, centrifuged then analyzed using the same method described above.
(§2) Reaction phenotyping is the identification of isoforms involved in drug metabolism and is important for the decipherment of drug biotransformation pathways and understanding of possible drug-drug interactions. M6, M7, and M8 were also detected in recombinant CYP incubations.

in vitro = in vitro ADME, human
Description: (§3) Metabolic stability of GRL 0617 and formation of M1 and M3 were evaluated using Silensome control, Silensome CYP2D6 and Silensome CYP3A4 incubated with 1 or 10 µM GRL 0617 in the presence of NADPH. Other metabolites were detected less than 1% of parent. […] CYP2D6 played an exclusive role in the formation of M2, but the reactions were not saturated in the concentration range used in this study and thus, the calculated Kcat, and Km were out of the experiment condition.
(§4) In addition, the contribution of specific isoform using Silensomes were evaluated, and calculated parameters were shown in Supplemental Figure S4 and Table 4. […] The contribution of specific CYP 3A4 or CYP2D6 was calculated to be 79.6% or 21.8%, respectively, using equation as equation below. Calculated % CYP isoform contribution = CLintcontrol−ClintINH ⁄ CLintcontrol ([Bohnert et al., 2016]).
(§5) incubated in Silensome control, Silensome CYP2D6, and Silensome CYP3A4 with NADPH for 0, 10,
(§6) 15, 30, 45, 60, or 120 min. The remaining percentages of GRL 0617 are expressed as mean ± SD (n=3).
(§7) (1 picture or pasted object on this page, not shown here)

CYP2D6 [1] = assay: Metabolic stability in Silensome CYP2D6 (CYP2D6 contribution); type: in vitro ADME, human; conditions: human
Description: as §3, §4, §5, §6, §7

Silensome CYP2D6 = assay: as above; type: in vitro ADME, human; conditions: (CLint control − CLint INH)/CLint control
Description: as §3, §4, §5, §6, §7

CYP2D6 [2] = molecular target: T2, CYP2D6 (Homo sapiens, UniProt P10635); conditions: pooled HLMs, substrate cocktail
Description: (§8) The drug–drug interaction potential was evaluated using a CYP cocktail assay that involved microsomal incubation and NADPH, as described elsewhere ([Lee et al., 2012]). […] The first reactions were initiated by NADPH addition, and each mixture was incubated in a shaking water bath at 37°C for 30 min. The final incubation was performed for 10 min with a total volume of 200 µL by adding substrates (tolbutamide (set B) as a CYP2C9 selective substrate, midazolam (set A) and testosterone (set B) as CYP3A4 selective substrates) and NADPH. The reaction was stopped and quenched by adding 200 µL of ice-cold acetonitrile containing 50 nM CBZ as internal standard, then centrifuged at 3,000 x g for 20 min. The supernatants were injected in LC-QTOF system. IC50 shift values were calculated as the ratio of the IC50 value obtained after pre-incubation without NADPH divided by the IC50 value obtained after 30 min incubation with NADPH.
(§9) The LC-QTOF system consisted of an Exion AD LC device (AB Sciex, Framingham, MA, United States) and a TripleTOF 6,600 + system (AB Sciex) equipped with an IonDrive Turbo V source operated in positive TOF information-dependent acquisition (IDA) MS2 scan mode. The TOF scan dwell time was 50 ms, and the 20 × IDA MS2 scan time was acquired with a 30-ms dwell time. […]

CYP2E1 = CYP2E1 (Homo sapiens, UniProt P05181); assay: CYP cocktail inhibition assay in pooled HLMs, CYP2E1; conditions: substrate cocktail
Description: as §8, §9

CYP2D6 [3] = molecular target: T2, CYP2D6; type: in vitro ADME; set-up: purchased Cypex (Dundee, UK); host or cells: bactosomes (bacterial membranes); conditions: 1 µM, 50 pmol/mL recombinant CYP2D6, NADPH, 60 min, vs control
Description: as §1, §2

T2 sequence (P10635 whole entry): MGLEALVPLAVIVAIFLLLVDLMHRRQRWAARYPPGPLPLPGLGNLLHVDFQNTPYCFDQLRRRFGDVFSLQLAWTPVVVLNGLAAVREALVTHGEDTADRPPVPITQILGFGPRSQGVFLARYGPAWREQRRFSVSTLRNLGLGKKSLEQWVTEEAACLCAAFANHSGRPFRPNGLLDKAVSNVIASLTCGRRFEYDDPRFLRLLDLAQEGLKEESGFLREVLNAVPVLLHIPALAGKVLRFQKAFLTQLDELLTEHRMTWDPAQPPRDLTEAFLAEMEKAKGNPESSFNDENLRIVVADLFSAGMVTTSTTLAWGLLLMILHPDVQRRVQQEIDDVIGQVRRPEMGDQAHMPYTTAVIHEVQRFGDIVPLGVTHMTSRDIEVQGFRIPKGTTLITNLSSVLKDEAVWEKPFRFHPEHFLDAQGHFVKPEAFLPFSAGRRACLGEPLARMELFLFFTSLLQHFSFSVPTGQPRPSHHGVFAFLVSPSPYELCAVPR
T1 sequence (P08684 whole entry): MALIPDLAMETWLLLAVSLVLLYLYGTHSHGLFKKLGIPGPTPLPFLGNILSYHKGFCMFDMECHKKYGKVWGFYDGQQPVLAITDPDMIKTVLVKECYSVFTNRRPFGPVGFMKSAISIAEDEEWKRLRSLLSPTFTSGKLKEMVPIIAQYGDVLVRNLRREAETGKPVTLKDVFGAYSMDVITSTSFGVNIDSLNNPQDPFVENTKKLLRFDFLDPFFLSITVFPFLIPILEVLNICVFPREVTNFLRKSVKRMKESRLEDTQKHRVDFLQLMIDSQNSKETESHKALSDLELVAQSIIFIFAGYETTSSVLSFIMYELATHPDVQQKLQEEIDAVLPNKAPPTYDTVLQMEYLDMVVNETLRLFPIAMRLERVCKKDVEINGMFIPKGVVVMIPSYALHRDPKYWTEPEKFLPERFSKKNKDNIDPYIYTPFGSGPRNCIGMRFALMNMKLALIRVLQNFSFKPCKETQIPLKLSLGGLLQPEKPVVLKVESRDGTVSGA
Chain of CYP2E1 (P05181 whole entry): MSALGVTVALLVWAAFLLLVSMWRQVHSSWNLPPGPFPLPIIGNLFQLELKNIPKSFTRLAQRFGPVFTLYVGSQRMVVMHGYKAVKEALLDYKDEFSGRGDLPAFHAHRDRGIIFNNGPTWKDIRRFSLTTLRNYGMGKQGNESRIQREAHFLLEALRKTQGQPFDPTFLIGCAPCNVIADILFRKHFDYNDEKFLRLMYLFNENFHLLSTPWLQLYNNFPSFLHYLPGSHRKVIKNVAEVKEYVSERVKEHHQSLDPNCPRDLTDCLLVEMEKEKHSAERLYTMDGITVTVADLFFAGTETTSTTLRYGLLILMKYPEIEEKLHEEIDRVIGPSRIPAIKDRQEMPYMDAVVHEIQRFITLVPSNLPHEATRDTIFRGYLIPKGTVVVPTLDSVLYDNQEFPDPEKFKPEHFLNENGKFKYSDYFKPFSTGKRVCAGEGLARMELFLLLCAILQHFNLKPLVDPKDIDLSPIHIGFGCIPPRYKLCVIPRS

For `Cc1ccc(N)cc1C(=O)N[C@H](C)c1cccc2ccccc12` [GRL0617, 5-amino-2-methyl-N-[(1R)-1-(1-naphthalenyl)ethyl]benzamide], the GRL0617 level remaining (CYP3A4) was 9.48% ± 1.26%, the Contribution (in vitro; Silensome control (reference)) was 100% and the half-life at 1 µM (in vitro; human, microsomes) was 17.4 min. The microsomal CLint (in vitro; human, microsomes, Silensome control with NADPH, read-out: Intrinsic clearance (in vitro) Clint) was 39.8 µL/min/mg, the half-life at 1 µM (CYP2D6 [1]) was 22.3 min and the microsomal CLint at 1 µM (CYP2D6 [1]; Silensome CYP2D6 with NADPH, read-out: Intrinsic clearance (in vitro) Clint) was 31.2 µL/min/mg. The “Contribution of CYP2D6 to metabolism” value (Silensome CYP2D6) was 21.8%, the “Concentrations at which CYP2D6 was inhibited” value (CYP2D6 [2]) was ≥ 50 µM and the “Concentrations at which CYP2E1 was inhibited” value (CYP2E1) was ≥ 50 µM. The GRL0617 level remaining (CYP2D6 [3]) was 71.46% ± 3.1%.
